Data from BindingDB's records for patent US20240083872 (Shionogi, 2024).

Columns and labels:
[1] = molecular target: 5-hydroxytryptamine receptor 2A (Homo sapiens, UniProt P28223); test: 5-HT2A Receptor Binding Inhibition Assay
Procedure: (§1) Binding Test of the Compound According to the Present Invention: In advance, 0.5 μL of the compound solution dissolved in DMSO was dispensed into a microplate, and the cell membrane and the hot ligand were diluted with Assay buffer, respectively. Then, the Assay buffer containing the diluted cell membrane was dispensed into a microplate at 50 μL/well. Then, the radioactive ligand solution was dispensed into a microplate at 50 μL/well, and the plate was sealed. Then, it was allowed to stand at room temperature (25° C.) for 1.5 hours. During this period, 50 mmol/L Tris-HCl (pH 7.4) was dispensed into a GF/B UniFilter plate at 50 μL/well and allowed to stand at 4° C. for 1 hour or longer. After that, filtration was performed with Cell harvester (PerkinElmer). […] The radioactivity of [3H]-Ketanserin bound to the 5-HT2A receptor was measured using Microbeta2 (PerkinElmer) at a measurement time of 1 min/well. The non-specific binding was calculated from the radioactivity of [3H]-Ketanserin in the presence of 500 μmol/L Serotonin HCl with the unlabeled ligand, and the total binding was calculated from the radioactivity of [3H]-Ketanserin in the absence of the compound according to the present invention (Vehicle). Finally, the Ki value was calculated from the dose-response curve.

[2] = molecular target: T1, 5-hydroxytryptamine receptor 2C (Homo sapiens, UniProt P28335); test: 5-HT2C Receptor Binding Inhibition Assay
T1 sequence (P28335 whole entry): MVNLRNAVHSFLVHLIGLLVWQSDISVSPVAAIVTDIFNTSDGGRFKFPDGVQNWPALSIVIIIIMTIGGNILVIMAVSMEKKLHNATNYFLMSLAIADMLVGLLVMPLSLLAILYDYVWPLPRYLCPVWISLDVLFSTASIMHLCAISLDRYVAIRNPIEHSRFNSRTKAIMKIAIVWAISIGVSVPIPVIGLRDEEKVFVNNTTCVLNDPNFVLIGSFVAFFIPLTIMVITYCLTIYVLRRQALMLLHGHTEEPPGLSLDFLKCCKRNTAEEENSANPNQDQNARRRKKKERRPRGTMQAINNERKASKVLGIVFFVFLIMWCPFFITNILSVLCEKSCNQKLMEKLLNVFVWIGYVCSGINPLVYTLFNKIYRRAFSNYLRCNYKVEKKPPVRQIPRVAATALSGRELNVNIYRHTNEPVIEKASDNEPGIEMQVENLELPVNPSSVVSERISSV
Procedure: as §1, with “Invention:In” for “Invention: In”, “37° C.” for “room temperature (25° C.)”, “2” for “1.5”, “(PerkinElmer). After the GF/B UniFilter plate was dried at room temperature, MicroScinti 20 was dispensed into the GF/B UniFilter plate at 50 μL/well, and the plate was sealed.” for “(PerkinElmer).”, “[3H]-Mesulergine” for “[3H]-Ketanserin”, “(Vehicle).” for “(Vehicle). Finally, the Ki value was calculated from the dose-response curve.”

5-hydroxytryptamine receptor 2A, sequence (P28223 whole entry): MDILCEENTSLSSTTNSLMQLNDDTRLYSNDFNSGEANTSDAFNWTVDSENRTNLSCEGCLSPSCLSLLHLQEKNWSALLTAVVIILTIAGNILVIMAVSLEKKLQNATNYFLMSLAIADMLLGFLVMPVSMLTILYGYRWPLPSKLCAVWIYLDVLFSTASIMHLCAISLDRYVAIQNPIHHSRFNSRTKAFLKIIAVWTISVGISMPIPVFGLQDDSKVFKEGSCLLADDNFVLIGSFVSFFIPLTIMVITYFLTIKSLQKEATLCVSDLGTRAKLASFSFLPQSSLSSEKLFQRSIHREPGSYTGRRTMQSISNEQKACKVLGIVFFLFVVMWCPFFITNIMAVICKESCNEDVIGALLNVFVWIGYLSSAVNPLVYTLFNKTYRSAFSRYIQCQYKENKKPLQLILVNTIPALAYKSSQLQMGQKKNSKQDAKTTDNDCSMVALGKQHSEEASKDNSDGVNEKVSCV

In the case of `CC(C)CNc1ccc(CN(Cc2ccn(C)n2)C(=O)NC2CCN(C)CC2)cc1` [US20240083872, Compound I-030], the Ki [1] is reported as 2.17 nM and the Ki [2] is reported as 7.76 nM.
